Test results published in publication PMC2686105, “Role of the stage-regulated nucleoside transporter TbNT10 in differentiation and adenosine uptake in Trypanosoma brucei” (Molecular and Biochemical Parasitology, 2007).

Target: T1, TbNT10 (Trypanosoma brucei, UniProt Q38EK0)
T1 construct: gene Tb09.160.5480; endogenous in procyclic forms and re-expressed (addback clone A) from an EP procyclin locus in the TbNT10 null mutant
Test: 3H-adenosine uptake; wild type, null mutant and addback procyclic cells
Format: cell-based
Settings: procyclic forms; 5 min; labelled compound; transporter activity judged by null mutant versus addback

T1 sequence (Q38EK0 entry or part of it): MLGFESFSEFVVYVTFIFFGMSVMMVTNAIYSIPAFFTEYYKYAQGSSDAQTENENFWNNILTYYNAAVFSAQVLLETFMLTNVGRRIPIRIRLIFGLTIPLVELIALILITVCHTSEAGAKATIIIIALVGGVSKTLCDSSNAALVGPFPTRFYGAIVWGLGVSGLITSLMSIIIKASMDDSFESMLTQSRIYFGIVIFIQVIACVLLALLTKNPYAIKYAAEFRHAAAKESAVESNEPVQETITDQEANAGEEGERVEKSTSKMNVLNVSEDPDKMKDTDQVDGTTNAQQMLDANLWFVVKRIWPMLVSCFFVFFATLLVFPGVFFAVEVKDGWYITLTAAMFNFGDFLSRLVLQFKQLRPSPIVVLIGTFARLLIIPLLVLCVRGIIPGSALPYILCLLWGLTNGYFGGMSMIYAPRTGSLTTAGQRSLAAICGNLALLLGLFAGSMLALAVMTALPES

Nc1ncnc2c1ncn2[C@@H]1O[C@H](CO)[C@@H](O)[C@H]1O [adenosine]
3H-adenosine uptake; wild type, null mutant and addback procyclic cells: it is the main transporter for adenosine in this life cycle stage
